Several values for one entry are separate records, joined by “and”; a condition that tells them apart may be missing. Identical values can stand only once.
Tested on: RPMI-8226 cells
Experiment: Gene expression profiling, NanoString nCounter PanCancer Pathways Panel, ROSALIND analysis
Type: cell-based, human
Protocol: RPMI-8226 cells were treated with vehicle or TCH-165 (10 μM) for 4 h. Total RNA was obtained using the mirVana miRNA Isolation Kit, with phenol (Thermofisher Scientific; AM1560; Waltham, MA, USA). Total RNA was quantified by Qubit (Thermofisher Scientific; Q32855; Waltham, MA, USA). and gene expression was evaluated against the nCounter® PanCancer Pathways Panel^TM according to the standard NanoString protocol.
Data were analyzed by ROSALIND® [36] with a hyperscale architecture developed by ROSALIND, Inc. (San Diego, CA, USA). Normalization, fold changes and p-values were calculated using criteria provided by NanoString. ROSALIND follows the nCounter® Advanced Analysis protocol of dividing counts within a lane by the geometric mean of the normalizer probes from the same lane. Housekeeping probes to be used for normalization are selected based on the geNorm algorithm, as implemented in the NormqPCR R library. Fold changes and p-values are calculated using the fast method as described in the nCounter Advanced Analysis 2.0 User Manual. The p-value adjustment is performed using the Benjamini–Hochberg method of estimating false discovery rates (FDR). Clustering of genes for the final heatmap of differentially expressed genes was done using the PAM (Partitioning Around Medoids) method using the fpc R library. Hypergeometric distribution was used to analyze the enrichment of pathways, gene ontology, domain structure and other ontologies. The topGO R library was used to determine local similarities and dependencies between GO terms in order to perform Elim pruning correction. Several database sources were referenced for enrichment analysis, including Interpro [40], NCBI [41], MSigDB [42, 43], REACTOME [44], WikiPathways. Enrichment was calculated relative to a set of background genes relevant to the experiment.

[1] = RPMI-8226 cells, TCH-165 treatment samples 1-3

With CCOC(=O)[C@]1(c2ccccc2)N=C(c2ccc(OC)cc2)N(Cc2ccccc2)[C@@H]1c1ccc(NCc2ccccc2)cc1 [TCH-165] the “VEGFC normalized gene expression” value (RPMI-8226, TCH-165 samples 1-3) was 4.571 and 4.699 and 4.731, the “VHL normalized gene expression” value (RPMI-8226, TCH-165 samples 1-3) was 9.098 and 9.164 and 9.268 and the “WEE1 normalized gene expression” value (RPMI-8226, TCH-165 samples 1-3) was 9.934 and 9.744 and 9.778. The “WHSC1L1 normalized gene expression” value (RPMI-8226, TCH-165 samples 1-3) was 9.091 and 9.1675 and 9.063, the “WHSC1 normalized gene expression” value (RPMI-8226, TCH-165 samples 1-3) was 9.949 and 9.835 and 9.719 and the “WIF1 normalized gene expression” value (RPMI-8226, TCH-165 samples 1-3) was 5.758 and 4.855 and 4.805. The “WNT2B normalized gene expression” value (RPMI-8226, TCH-165 samples 1-3) was 5.308 and 4.427 and 4.528, the “WNT2 normalized gene expression” value (RPMI-8226, TCH-165 samples 1-3) was 5.827 and 5.242 and 5.592 and the “WNT3 normalized gene expression” value (RPMI-8226, TCH-165 samples 1-3) was 5.044 and 4.7789 and 4.9095. For the same compound, the “WNT4 normalized gene expression” value (RPMI-8226, TCH-165 samples 1-3) was 4.488 and 3.817 and 3.5707, the “WNT5A normalized gene expression” value (RPMI-8226, TCH-165 samples 1-3) was 6.308 and 6.154 and 6.184 and the “WNT6 normalized gene expression” value (RPMI-8226, TCH-165 samples 1-3) was 4.924 and 4.739 and 4.437. For the same compound, the “WNT7A normalized gene expression” value (RPMI-8226, TCH-165 samples 1-3) was 5.208 and 4.962 and 4.9095, the “WNT7B normalized gene expression” value (RPMI-8226, TCH-165 samples 1-3) was 3.723 and 3.27 and 3.805 and the “WNT10B normalized gene expression” value (RPMI-8226, TCH-165 samples 1-3) was 5.259 and 5.27 and 5.211. For the same compound, the “WNT11 normalized gene expression” value (RPMI-8226, TCH-165 samples 1-3) was 4.308 and 4.154 and 3.876, the “WNT16 normalized gene expression” value (RPMI-8226, TCH-165 samples 1-3) was 4.986 and 4.27 and 4.693 and the “WT1 normalized gene expression” value (RPMI-8226, TCH-165 samples 1-3) was 4.571 and 4.476 and 4.341. The “XPA normalized gene expression” value (RPMI-8226, TCH-165 samples 1-3) was 8.195 and 7.97 and 8.109, the “XRCC4 normalized gene expression” value (RPMI-8226, TCH-165 samples 1-3) was 8.283 and 8.506 and 8.426 and the “ZAK normalized gene expression” value (RPMI-8226, TCH-165 samples 1-3) was 4.793 and 4.2133 and 4.238. For the same compound, the “ZBTB16 normalized gene expression” value (RPMI-8226, TCH-165 samples 1-3) was 2.986 and 2.891 and 3.0682, the “ZBTB32 normalized gene expression” value (RPMI-8226, TCH-165 samples 1-3) was 4.101 and 4.093 and 3.731 and the “ZIC2 normalized gene expression” value (RPMI-8226, TCH-165 samples 1-3) was 4.86 and 4.154 and 4.291. The “Normalized gene expression, ACVR1C” value [1] was 4.723 and 4.614 and 4.693, the “Normalized gene expression, ALKBH2” value [1] was 6.955 and 6.808 and 6.991 and the “Normalized gene expression, ALKBH3” value [1] was 8.467 and 8.37 and 8.417. The “Normalized gene expression, AMER1” value [1] was 6.704 and 6.569 and 6.56, the “Normalized gene expression, APH1B” value [1] was 6.101 and 5.7789 and 5.991 and the “Normalized gene expression, ARID1B” value [1] was 9.42 and 9.304 and 9.241. For the same compound, the “Normalized gene expression, ARID2” value [1] was 9.514 and 9.28 and 9.287, the “Normalized gene expression, ASXL1” value [1] was 9.934 and 9.758 and 9.627 and the “Normalized gene expression, BIRC7” value [1] was 4.401 and 4.2133 and 4.0682. For the same compound, the “Normalized gene expression, BMP8A” value [1] was 6.156 and 5.759 and 5.787, the “Normalized gene expression, BRIP1” value [1] was 8.576 and 8.341 and 8.466 and the “Normalized gene expression, CACNA2D3” value [1] was 2.986 and 2.154 and 2.483. For the same compound, the “Normalized gene expression, CACNA2D4” value [1] was 4.793 and 4.739 and 4.291, the “Normalized gene expression, CACNG6” value [1] was 5.101 and 4.093 and 4.653 and the “Normalized gene expression, CALML6” value [1] was 4.986 and 4.996 and 5.038. For the same compound, the “Normalized gene expression, CARD11” value [1] was 6.55 and 6.729 and 6.472, the “Normalized gene expression, CASP12” value [1] was 5.208 and 4.891 and 4.653 and the “Normalized gene expression, CCNB3” value [1] was 2.401 and 3.3768 and 3.184. The “Normalized gene expression, COL6A6” value [1] was 3.986 and 4.324 and 4.184, the “Normalized gene expression, COL24A1” value [1] was 5.488 and 5.2133 and 5.316 and the “Normalized gene expression, COL27A1” value [1] was 4.986 and 5.154 and 5.098. The “Normalized gene expression, CREB3L1” value [1] was 3.86 and 3.657 and 3.39, the “Normalized gene expression, CREB3L3” value [1] was 2.723 and 2.891 and 2.943 and the “Normalized gene expression, CREB3L4” value [1] was 7.001 and 6.678 and 6.702. For the same compound, the “Normalized gene expression, CRLF2” value [1] was 5.723 and 5.798 and 5.75, the “Normalized gene expression, CXXC4” value [1] was 6.156 and 6.2133 and 5.858 and the “Normalized gene expression, DTX3” value [1] was 3.986 and 4.2133 and 4.238. The “Normalized gene expression, FAAP24” value [1] was 7.343 and 7.012 and 7.17, the “Normalized gene expression, FBXW7” value [1] was 6.571 and 6.488 and 6.528 and the “Normalized gene expression, GDF6” value [1] was 4.101 and 4.657 and 4.0068. For the same compound, the “Normalized gene expression, GNG12” value [1] was 4.793 and 4.855 and 4.693, the “Normalized gene expression, H3F3C” value [1] was 12.4579 and 12.5235 and 12.4804 and the “Normalized gene expression, HDAC10” value [1] was 8.066 and 7.808 and 7.722. For the same compound, the “Normalized gene expression, HDAC11” value [1] was 5.156 and 4.927 and 5.291, the “Normalized gene expression, HES5” value [1] was 6.355 and 5.657 and 5.893 and the “Normalized gene expression, HHIP” value [1] was 3.986 and 3.739 and 3.653. For the same compound, the “Normalized gene expression, IL22RA1” value [1] was 5.156 and 5.0613 and 5.316, the “Normalized gene expression, IL22RA2” value [1] was 5.445 and 4.817 and 4.437 and the “Normalized gene expression, IL23R” value [1] was 4.986 and 4.614 and 4.291. For the same compound, the “Normalized gene expression, KMT2C” value [1] was 9.426 and 9.461 and 9.455, the “Normalized gene expression, LAMA1” value [1] was 4.986 and 4.27 and 4.184 and the “Normalized gene expression, MAML2” value [1] was 8.948 and 9.039 and 8.92. For the same compound, the “Normalized gene expression, NFKBIZ” value [1] was 7.259 and 6.9093 and 6.832, the “Normalized gene expression, NKD1” value [1] was 5.445 and 5.3768 and 5.437 and the “Normalized gene expression, NSD1” value [1] was 7.758 and 7.832 and 7.75. For the same compound, the “Normalized gene expression, PAK7” value [1] was 2.986 and 3.891 and 3.39, the “Normalized gene expression, PDGFC” value [1] was 6.509 and 6.415 and 6.1271 and the “Normalized gene expression, PDGFD” value [1] was 4.401 and 4.27 and 4.0068. The “Normalized gene expression, PHF6” value [1] was 9.829 and 9.914 and 9.8, the “Normalized gene expression, PLA2G4E” value [1] was 3.86 and 4.029 and 4.0682 and the “Normalized gene expression, PLA2G4F” value [1] was 4.208 and 4.154 and 3.483. For the same compound, the “Normalized gene expression, POLD4” value [1] was 8.314 and 8.1355 and 8.194, the “Normalized gene expression, PRMT8” value [1] was 4.308 and 4.476 and 4.341 and the “Normalized gene expression, PTCRA” value [1] was 3.986 and 4.3768 and 4.238. The “Normalized gene expression, PTPN5” value [1] was 4.571 and 4.476 and 4.39, the “Normalized gene expression, SHC4” value [1] was 5.571 and 4.891 and 5.0068 and the “Normalized gene expression, SOX17” value [1] was 4.101 and 4.154 and 3.483. The “Normalized gene expression, SPRY4” value [1] was 5.044 and 5.093 and 5.366, the “Normalized gene expression, SUV39H2” value [1] was 8.912 and 8.7789 and 8.832 and the “Normalized gene expression, TBL1XR1” value [1] was 13.2408 and 13.1822 and 13.1378. The “Normalized gene expression, TCF7L1” value [1] was 5.101 and 4.739 and 5.461, the “Normalized gene expression, THEM4” value [1] was 7.581 and 7.249 and 7.3536 and the “Normalized gene expression, TNN” value [1] was 4.986 and 4.7789 and 4.39. For the same compound, the “Normalized gene expression, TRAF7” value [1] was 10.2015 and 10.0643 and 10.0175, the “Normalized gene expression, TSLP” value [1] was 4.571 and 4.699 and 4.769 and the “Normalized gene expression, WNT5B” value [1] was 5.208 and 5.093 and 5.238. The “Normalized gene expression, WNT10A” value [1] was 5.924 and 6.045 and 6.17.

— article PMC9138505, “Small Molecule 20S Proteasome Enhancer Regulates MYC Protein Stability and Exhibits Antitumor Activity in Multiple Myeloma” (Biomedicines, 2022)
